Source: the NIST ThermoML archive (doi:10.1016/j.fluid.2010.09.021)
Numbers after ± are expanded uncertainties.

Experiment: excess molar enthalpy (molar enthalpy of mixing); xn = mol fraction of the nth substance listed
Conditions: Liquid, Flow calorimetry

CCCC[N+]1(C)CCCC1.O=S(=O)([N-]S(=O)(=O)C(F)(F)F)C(F)(F)F + Cc1ccccc1
413.15 K, 2342 kPa
Conditions | excess molar enthalpy [kcal/mol]
x2 = 0.0687 | -0.029 ± 0.00122
x2 = 0.1315 | -0.0605 ± 0.00239
x2 = 0.1892 | -0.0872 ± 0.00359
x2 = 0.2423 | -0.103 ± 0.0043
x2 = 0.2914 | -0.119 ± 0.00478
x2 = 0.3368 | -0.136 ± 0.0055
x2 = 0.4184 | -0.16 ± 0.00645
x2 = 0.4896 | -0.168 ± 0.00693
x2 = 0.5523 | -0.166 ± 0.00669
x2 = 0.6574 | -0.153 ± 0.00621
x2 = 0.7421 | -0.123 ± 0.00502
x2 = 0.8119 | -0.094 ± 0.00382
x2 = 0.8962 | -0.0543 ± 0.00225
x2 = 0.9628 | -0.0181 ± 0.000789

CCCC[N+]1(C)CCCC1.O=S(=O)([N-]S(=O)(=O)C(F)(F)F)C(F)(F)F + c1ccccc1
363.15 K, 2239 kPa
Conditions | excess molar enthalpy [kcal/mol]
x2 = 0.0815 | -0.0309 ± 0.00129
x2 = 0.1541 | -0.0622 ± 0.00263
x2 = 0.2191 | -0.0851 ± 0.00359
x2 = 0.2777 | -0.11 ± 0.00454
x2 = 0.3308 | -0.136 ± 0.0055
x2 = 0.3792 | -0.154 ± 0.00621
x2 = 0.4639 | -0.181 ± 0.00741
x2 = 0.5357 | -0.203 ± 0.00837
x2 = 0.7758 | -0.175 ± 0.00717
x2 = 0.8385 | -0.125 ± 0.00502
x2 = 0.9121 | -0.07 ± 0.00287
x2 = 0.9689 | -0.0232 ± 0.00098

CCCCCC[N+]1(C)CCCC1.O=S(=O)([N-]S(=O)(=O)C(F)(F)F)C(F)(F)F + c1ccccc1
393.15 K, 2342 kPa
Conditions | excess molar enthalpy [kcal/mol]
x2 = 0.0899 | -0.0422 ± 0.00174
x2 = 0.1686 | -0.0867 ± 0.00359
x2 = 0.238 | -0.121 ± 0.00502
x2 = 0.2998 | -0.145 ± 0.00598
x2 = 0.355 | -0.177 ± 0.00717
x2 = 0.4047 | -0.199 ± 0.00813
x2 = 0.4906 | -0.227 ± 0.00932
x2 = 0.5622 | -0.252 ± 0.0103
x2 = 0.6228 | -0.263 ± 0.0108
x2 = 0.7198 | -0.236 ± 0.00956
x2 = 0.7939 | -0.19 ± 0.00789
x2 = 0.8525 | -0.141 ± 0.00574
x2 = 0.9204 | -0.0734 ± 0.00311
x2 = 0.972 | -0.0246 ± 0.00105

CCCCCC[N+]1(C)CCCC1.O=S(=O)([N-]S(=O)(=O)C(F)(F)F)C(F)(F)F + Cc1ccccc1
413.15 K, 2377 kPa
Conditions | excess molar enthalpy [kcal/mol]
x2 = 0.0759 | -0.0366 ± 0.00153
x2 = 0.1443 | -0.0704 ± 0.00287
x2 = 0.2063 | -0.0967 ± 0.00406
x2 = 0.2626 | -0.121 ± 0.00502
x2 = 0.314 | -0.145 ± 0.00598
x2 = 0.3612 | -0.165 ± 0.00669
x2 = 0.4448 | -0.189 ± 0.00765
x2 = 0.5165 | -0.199 ± 0.00813
x2 = 0.5787 | -0.203 ± 0.00837
x2 = 0.6812 | -0.188 ± 0.00765
x2 = 0.7622 | -0.151 ± 0.00621
x2 = 0.8278 | -0.112 ± 0.00454
x2 = 0.9058 | -0.0643 ± 0.00263
x2 = 0.9665 | -0.0259 ± 0.0011
